# According to patent US12479818B2, “Treatment of fibrosis with IRE1 small molecule inhibitors” (Cornell University, priority 2019, dated 2025):
# pEC50: −log10 of the molar value.
# Target: IRE1a (Homo sapiens, UniProt O75460)
# Experiment: IRE1a Endoribonuclease Nanoluciferase Assay (XBP1 luciferase reporter in 293T cells)
# Type: cell-based
# Parameters: endogenous in cells; host or cells: 293T
# Conditions: XBP1 nanoluciferase reporter in 293T cells, ER stressor; tested as the salt named
# Description: Compounds disclosed herein were assessed for disruption of IRE1 signaling using a IRE1a Endoribonuclease Nanoluciferase Assay. […] About 24 hours later, the cells were transfected with Effectene. In a 15 mL tube, the following was added: 2 ug XBP1 luciferase reporter plasmid (PGK-Luc2-P2A-XBP1u-Nanoluciferase-PEST); 300 ul EC buffer; and 16 ul Enhancer, followed by incubation at room temp for 5 minutes. […] 2.6 mL cDMEM media was added. Old media was aspirated from the cells, followed by addition of 7 mL fresh media. Full transfection mixture was added dropwise to cells. Cells were incubated for 6 hours, followed by trypsinization, centrifugation and resuspension in 11 mL fresh cDMEM media. 100 μL of cells were plated per a well in a 96 well plate. A day later, ER stressors of choice +/− inhibitors were added. To harvest, media was aspirated from cells completely, then 50 uL 1× passive lysis buffer (Promega: E1941) was added per well and put on shaker (300 rpm) for 30 minutes at room temperature. […] 15 uL OneGlo (nanoluciferase kit, Promega N1630) was added. Plates were spun down, placed on shaker (300 rpm) for 10 minutes. Plates were read on luminometer, 1000 ms integration time per well. 15 uL Stop and Glo (nanoluciferase kit) was added. Plates were spun down, placed on shaker (300 rpm) for 10 minutes. Plates were read on luminometer, 1000 ms second integration time per well.
# IRE1a, sequence (O75460 19-977): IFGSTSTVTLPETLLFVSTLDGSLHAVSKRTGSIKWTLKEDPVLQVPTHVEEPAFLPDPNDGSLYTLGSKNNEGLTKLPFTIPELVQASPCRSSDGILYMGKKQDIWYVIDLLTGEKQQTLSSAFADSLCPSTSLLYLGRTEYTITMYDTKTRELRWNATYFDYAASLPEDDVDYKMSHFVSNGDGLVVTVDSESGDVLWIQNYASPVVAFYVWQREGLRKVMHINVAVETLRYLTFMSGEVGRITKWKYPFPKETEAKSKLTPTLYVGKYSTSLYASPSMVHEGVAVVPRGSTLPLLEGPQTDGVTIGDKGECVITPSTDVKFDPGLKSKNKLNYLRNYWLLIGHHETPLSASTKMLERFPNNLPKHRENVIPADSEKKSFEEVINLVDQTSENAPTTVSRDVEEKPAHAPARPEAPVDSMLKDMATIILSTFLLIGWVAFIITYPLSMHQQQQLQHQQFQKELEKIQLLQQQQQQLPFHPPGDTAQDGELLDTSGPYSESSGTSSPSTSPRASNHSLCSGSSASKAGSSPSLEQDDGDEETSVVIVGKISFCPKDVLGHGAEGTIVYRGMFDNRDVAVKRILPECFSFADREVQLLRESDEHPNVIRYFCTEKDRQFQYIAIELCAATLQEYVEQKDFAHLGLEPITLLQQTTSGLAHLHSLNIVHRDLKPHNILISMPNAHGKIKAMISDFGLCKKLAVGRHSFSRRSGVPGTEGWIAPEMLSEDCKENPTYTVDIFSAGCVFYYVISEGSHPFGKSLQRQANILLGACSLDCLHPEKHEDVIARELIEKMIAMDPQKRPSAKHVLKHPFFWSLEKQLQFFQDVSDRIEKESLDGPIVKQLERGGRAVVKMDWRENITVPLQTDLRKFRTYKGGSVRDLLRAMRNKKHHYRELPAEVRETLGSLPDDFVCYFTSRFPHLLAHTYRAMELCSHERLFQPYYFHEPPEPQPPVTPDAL
row,Compound,pEC50
1,"CCc1cc(-c2ccc(NS(=O)(=O)c3ccccc3Cl)nc2C)cc2cnc(N[C@H]3CC[C@H](NC)CC3)nc12 [Compound 122, 2-chloro-N-(5-(8-ethyl-2-(((1r,4r)-4-(methylamino)cyclohexyl)amino)quinazolin-6-yl)-6-methylpyridin-2-yl)benzenesulfonamide]",> 8.30
2,"COc1nc(NS(=O)(=O)c2ccccc2Cl)ccc1-c1cc(C(C)(F)F)c2nc(N[C@H]3CC[C@H](N(C)C)CC3)ncc2c1 [Compound 124, 2-chloro-N-(5-(8-(1,1-difluoroethyl)-2-(((1r,4r)-4-(dimethylamino)cyclohexyl)amino)quinazolin-6-yl)-6-methoxypyridin-2-yl)benzenesulfonamide]",> 8.30
3,"CCc1cc(-c2ccc(NS(=O)(=O)c3ccccc3Cl)nc2C)cc2cnc(NC3CCC(N(C)CC)CC3)nc12 (stereo not shown) [Compound 125, 2-chloro-N-(5-(8-ethyl-2-(((1r,4r)-4-(ethyl(methyl)amino)cyclohexyl)amino)quinazolin-6-yl)-6-methylpyridin-2-yl)benzenesulfonamide]",> 8.30
4,"CCc1cc(-c2cc(F)c(NS(=O)(=O)c3ccccc3Cl)nc2OC)cc2cnc(NC3CCC(NC)CC3)nc12 (stereo not shown) [Compound 127, 2-chloro-N-(5-(8-ethyl-2-(((1r,4r)-4-(methylamino)cyclohexyl)amino)quinazolin-6-yl)-3-fluoro-6-methoxypyridin-2-yl)benzenesulfonamide]",> 8.30
5,"CCc1cc(-c2cc(F)c(NS(=O)(=O)c3ccccc3Cl)nc2OC)cc2cnc(N[C@H]3CC[C@H](N(C)C)CC3)nc12 [Compound 128, 2-chloro-N-(5-(2-(((1r,4r)-4-(dimethylamino)cyclohexyl)amino)-8-ethylquinazolin-6-yl)-3-fluoro-6-methoxypyridin-2-yl)benzenesulfonamide]",> 8.30
6,"CCc1cc(-c2ccc(NS(=O)(=O)c3ccccc3Cl)nc2C)cc2cnc(N[C@H]3CC[C@H](N(C)CC4CCC4)CC3)nc12 [Compound 130, 2-chloro-N-(5-(2-(((1r,4r)-4-((cyclobutylmethyl)(methyl)amino)cyclohexyl)amino)-8-ethylquinazolin-6-yl)-6-methylpyridin-2-yl)benzenesulfonamide]",> 8.30
7,"Cc1nc(NS(=O)(=O)c2ccccc2Cl)ccc1-c1cc(C(C)(F)F)c2nc(N[C@H]3CC[C@H](N(C)C)CC3)ncc2c1 [Compound 131, 2-chloro-N-(5-(8-(1,1-difluoroethyl)-2-(((1r,4r)-4-(dimethylamino)cyclohexyl)amino)quinazolin-6-yl)-6-methylpyridin-2-yl)benzenesulfonamide]",> 8.30
8,"CCc1cc(-c2ccc(NS(=O)(=O)c3ccccc3Cl)nc2C)cc2cnc(N[C@H]3CC[C@H](N(C)CCOC)CC3)nc12 [Compound 132, 2-chloro-N-(5-(8-ethyl-2-(((1r,4r)-4-((2-methoxyethyl)(methyl)amino)cyclohexyl)amino)quinazolin-6-yl)-6-methylpyridin-2-yl)benzenesulfonamide]",> 8.30
9,"COc1nc(NS(=O)(=O)c2ccccc2Cl)ccc1-c1cc(C)c2nc(N[C@H]3CC[C@H](N(C)C)CC3)ncc2c1 [Compound 133, 2-chloro-N-(5-(2-(((1r,4r)-4-(dimethylamino)cyclohexyl)amino)-8-methylquinazolin-6-yl)-6-methoxypyridin-2-yl)benzenesulfonamide]",> 8.30
10,"COc1nc(NS(=O)(=O)c2ccccc2Cl)ccc1-c1cc(C(F)(F)F)c2nc(N[C@H]3CC[C@H](N(C)C)CC3)ncc2c1 [Compound 135, 2-chloro-N-(5-(2-(((1r,4r)-4-(dimethylamino)cyclohexyl)amino)-8-(trifluoromethyl)quinazolin-6-yl)-6-methoxypyridin-2-yl)benzenesulfonamide]",> 8.30
11,"COCc1cc(-c2ccc(NS(=O)(=O)c3ccccc3Cl)nc2OC)cc2cnc(N[C@H]3CC[C@H](N(C)C)CC3)nc12 [Compound 137, 2-chloro-N-(5-(2-(((1r,4r)-4-(dimethylamino)cyclohexyl)amino)-8-(methoxymethyl)quinazolin-6-yl)-6-methoxypyridin-2-yl)benzenesulfonamide]",> 8.30
12,"CCc1cc(-c2ccc(NS(=O)(=O)c3ccccc3Cl)nc2OC)cc2cnc(N[C@H]3CC[C@@H](N(C)C)CC3)nc12 [Compound 141, 2-chloro-N-(5-(2-(((1s,4s)-4-(dimethylamino)cyclohexyl)amino)-8-ethylquinazolin-6-yl)-6-methoxypyridin-2-yl)benzenesulfonamide]",5.00 to 7.00
13,"COc1nc(NS(=O)(=O)c2ccccc2Cl)c(F)cc1-c1cc(C)c2nc(N[C@H]3CC[C@H](N(C)C)CC3)ncc2c1 [Compound 145, 2-chloro-N-(5-(2-(((1r,4r)-4-(dimethylamino)cyclohexyl)amino)-8-methylquinazolin-6-yl)-3-fluoro-6-methoxypyridin-2-yl)benzenesulfonamide]",> 8.30
14,"COc1nc(NS(=O)(=O)c2ccccc2Cl)ccc1-c1cc(F)c2nc(N[C@H]3CC[C@H](N(C)C)CC3)ncc2c1 [Compound 148, 2-chloro-N-(5-(2-(((1r,4r)-4-(dimethylamino)cyclohexyl)amino)-8-fluoroquinazolin-6-yl)-6-methoxypyridin-2-yl)benzenesulfonamide]",> 8.30
15,"COc1nc(NS(=O)(=O)c2ccccc2Cl)c(F)cc1-c1ccc2nc(N[C@H]3CC[C@H](N(C)C)CC3)ncc2c1 [Compound 149, 2-chloro-N-(5-(2-(((1r,4r)-4-(dimethylamino)cyclohexyl)amino)quinazolin-6-yl)-3-fluoro-6-methoxypyridin-2-yl)benzenesulfonamide]",7.30 to 8.30
16,"CN[C@H]1CC[C@H](Nc2ncc3cc(-c4cc(F)c(NS(=O)(=O)c5ccccc5Cl)nc4OC)ccc3n2)CC1 [Compound 150, 2-chloro-N-(3-fluoro-6-methoxy-5-(2-(((1r,4r)-4-(methylamino)cyclohexyl)amino)quinazolin-6-yl)pyridin-2-yl)benzenesulfonamide]",7.30 to 8.30
17,"CCc1cc(-c2ccc(NS(=O)(=O)c3ccccc3Cl)nc2C)cc2cnc(N[C@@H]3CC[C@@H](N(C)C)C[C@@H]3F)nc12 [Compound 151, 2-chloro-N-(5-(2-(((1R,2S,4R)-4-(dimethylamino)-2-fluorocyclohexyl)amino)-8-ethylquinazolin-6-yl)-6-methylpyridin-2-yl)benzenesulfonamide]",> 8.30
18,"CCc1cc(-c2ccc(NS(=O)(=O)c3cccc(Cl)c3Cl)nc2C)cc2cnc(N[C@H]3CC[C@H](N(C)C)CC3)nc12 [Compound 152, 2,3-dichloro-N-(5-(2-(((1r,4r)-4-(dimethylamino)cyclohexyl)amino)-8-ethylquinazolin-6-yl)-6-methylpyridin-2-yl)benzenesulfonamide]",> 8.30
19,"Cc1nc(NS(=O)(=O)c2ccccc2Cl)c(F)cc1-c1ccc2nc(N[C@H]3CC[C@H](N(C)C)CC3)ncc2c1 [Compound 153, 2-chloro-N-(5-(2-(((1r,4r)-4-(dimethylamino)cyclohexyl)amino)quinazolin-6-yl)-3-fluoro-6-methylpyridin-2-yl)benzenesulfonamide]",7.30 to 8.30
20,"CCc1cc(-c2cnc(NS(=O)(=O)c3ccccc3Cl)nc2OC)cc2cnc(NC3CCC(N(C)C)CC3)nc12 (stereo not shown) [Compound 154, 2-chloro-N-(5-(2-(((1r,4r)-4-(dimethylamino)cyclohexyl)amino)-8-ethylquinazolin-6-yl)-4-methoxypyrimidin-2-yl)benzenesulfonamide]",> 8.30
21,"COc1nc(NS(=O)(=O)c2ccccc2Cl)c(F)cc1-c1cc(F)c2nc(N[C@H]3CC[C@H](N(C)C)CC3)ncc2c1 [Compound 155, 2-chloro-N-(5-(2-(((1r,4r)-4-(dimethylamino)cyclohexyl)amino)-8-fluoroquinazolin-6-yl)-3-fluoro-6-methoxypyridin-2-yl)benzenesulfonamide]",7.00 to 7.30
22,"CCc1cc(-c2ncc(NS(=O)(=O)c3ccccc3Cl)nc2OC)cc2cnc(N[C@H]3CC[C@H](N(C)C)CC3)nc12 [Compound 157, 2-chloro-N-(5-(2-(((1r,4r)-4-(dimethylamino)cyclohexyl)amino)-8-ethylquinazolin-6-yl)-6-methoxypyrazin-2-yl)benzenesulfonamide]",> 8.30
23,"CCc1cc(-c2ccc(NS(=O)(=O)c3cccc(F)c3Cl)nc2C)cc2cnc(N[C@H]3CC[C@H](N(C)C)CC3)nc12 [Compound 158, 2-chloro-N-(5-(2-(((1r,4r)-4-(dimethylamino)cyclohexyl)amino)-8-ethylquinazolin-6-yl)-6-methylpyridin-2-yl)-3-fluorobenzenesulfonamide]",> 8.30
24,"CCc1cc(-c2nnc(NS(=O)(=O)c3ccccc3Cl)cc2OC)cc2cnc(N[C@H]3CC[C@H](N(C)C)CC3)nc12 [Compound 159, 2-chloro-N-(6-(2-(((1r,4r)-4-(dimethylamino)cyclohexyl)amino)-8-ethylquinazolin-6-yl)-5-methoxypyridazin-3-yl)benzenesulfonamide]",7.30 to 8.30
25,"CCc1cc(-c2ccc(NS(=O)(=O)c3cccc(C)c3Cl)nc2C)cc2cnc(N[C@H]3CC[C@H](N(C)C)CC3)nc12 [Compound 160, 2-chloro-N-(5-(2-(((1r,4r)-4-(dimethylamino)cyclohexyl)amino)-8-ethylquinazolin-6-yl)-6-methylpyridin-2-yl)-3-methylbenzenesulfonamide]",> 8.30
